According to PubChem BioAssay (NCI):
“And” between values parts separate entries of the source, which are not always exact repeats. Equal values may be shown once.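 A five-concentration, 48-hour dose response in 96-well plates underlies each endpoint, interpolated linearly between surrounding concentrations. GI50 = concentration required for 50% inhibition of growth. TGI: concentration producing complete growth inhibition.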 Where a SMILES comes first, the peptide text is derived from it. [ ]: non-standard residue; d: D form. The star is where a group is joined. Bn2Val = CC(C)[C@@H](C(=O)*)N(Cc1ccccc1)Cc1ccccc1; NH(3,4-diMeO-benzyl) = COc1ccc(CN*)cc1OC; NMeV = CN[C@H](C(=O)O)C(C)C; dNMeA = CN[C@H](C)C(=O)O

Legend:
Assay in all cases: NCI anticancer screen, dose series, 48 h
DU-145 prostate = system: DU-145 prostate
HS 578T breast = system: HS 578T breast
NCI/ADR-RES ovarian = system: NCI/ADR-RES ovarian
MDA-MB-231 breast = system: MDA-MB-231 breast

| SMILES | TGI (DU-145 prostate) | TGI (HS 578T breast) [µM] | TGI (NCI/ADR-RES ovarian) | TGI (MDA-MB-231 breast) | GI50 (DU-145 prostate) [µM] | GI50 (HS 578T breast) [µM] | GI50 (NCI/ADR-RES ovarian) [µM] | GI50 (MDA-MB-231 breast) [µM] |
| --- | --- | --- | --- | --- | --- | --- | --- | --- |
| CCCNC(=O)OCc1c(COC(=O)NCCC)c(-c2ccc(Cl)c(Cl)c2)n2c1CCC2 | > 100 µM | 26.2 | 17.4 µM | 21.9 µM |  |  |  |  |
| O=C(O)/C=C/C(=O)Nc1ncn[nH]1 | > 100 µM | > 100 | > 100 µM | > 100 µM |  |  |  |  |
| N#Cc1nc(-c2ccc(F)cc2)oc1S(=O)(=O)N1CCOCC1 | 6.07 µM | 45.4 | 47.2 µM | 8.64 µM | 2.23 | 15.1 | 13.4 | 2.86 |
| Cc1c(Cl)cccc1Nc1ncccc1C(=O)O | > 100 µM | > 100 | > 100 µM | > 100 µM | > 100 | 63.1 | 78.7 | 92.3 |
| Fc1ccc(-c2nn(-c3ccccc3)cc2-c2nc3ccccc3o2)cc1 | 19.4 µM | 66.5 | > 100 µM | 67.3 µM | 5.65 | 6.48 | 3.57 | 8.47 |
| CN=C1NC(=O)/C(=C/c2ccc3ncccc3c2)S1 | > 25 µM | > 21 | > 25 µM | > 25 µM | 5.78 | 6.24 | 13.9 | 18.5 |
| COc1nc2c(cc1S(=O)(=O)c1ccccc1)CCc1c-2cnn1-c1ccccc1Cl | > 100 µM | > 100 | > 100 µM | > 100 µM | > 100 | 4.7 | 8.24 | 5.16 |
| COc1ccc(CN2CCCC(C(=O)c3ccc(C(F)(F)F)cc3)C2)c(O)c1 (stereo unspecified) | > 100 µM | > 100 | > 100 µM | 32 µM | 53.9 | 24.7 | 26.7 | 13.6 |
| CC1=C2[C@@H](CC1)[C@]1(C)O[C@@](C(C)C)(C[C@H]1OC(=O)[C@H](C)O)[C@H]2OC(=O)/C=C/c1ccccc1 | 31.9 µM | 0.378 | 16 µM | 36.4 µM | 15.9 | 0.0529 | 0.428 | 15.3 |
| O=C(Cc1ccc(/C=C/C(=O)c2ncc[nH]2)cc1)Nc1ccc(Cl)cc1 | 7.39 µM | > 25 | > 25 µM | 14.9 µM | 1.7 | 18.8 | 5.02 | 4.27 |
| COc1ccc(CNC(=O)[C@@H](C)N(C)C(=O)[C@@H]2CCCN2C(=O)[C@H](C(C)C)N(C)C(=O)[C@@H](NC(=O)[C@H](C(C)C)N(Cc2ccccc2)Cc2ccccc2)C(C)C)cc1OC (Bn2Val-V[NMeV]P[dNMeA]-{NH(3,4-diMeO-benzyl)}) | 50 µM and 42.3 µM |  | 32.9 µM and 40.1 µM | 18.8 µM and 22.7 µM |  | 19.5 | 6.35 | 10.8 |
| S=C1NCCN1C1=Nc2ccccc2CO1 | > 100 µM |  | > 100 µM | > 100 µM | > 100 |  | > 100 | > 100 |
| COC(=O)c1c2c(c(C)[n+]([O-])c1C)C(=O)C=CC2=O | 3.22 µM | 8.64 | 7.78 µM | 8.28 µM | 1.82 | 2.84 | 2.33 | 2.68 |
| C[C@@H]1Cc2c([nH]c3ccccc23)[C@@H](c2c(F)cc(/C=C/C(=O)O)cc2F)N1CC(C)(C)F | > 62.3 µM | 45.4 | 36.5 µM | 38 µM | 19.1 | 12.8 | 14.7 | 18.4 |
| Cn1c(-c2nonc2N)nc2cnccc21 | > 25 µM | > 25 | > 25 µM | > 25 µM | > 25 | 14.9 | > 25 | > 25 |
| O=C1CCC(NC(=O)c2ccccc2)C(=O)N1 (stereo unspecified) | > 100 µM | > 100 | > 100 µM | > 100 µM |  |  |  |  |
| NS(=O)(=O)c1ccc(-n2nc(-c3ccc(Br)cc3)ccc2=O)cc1 | > 10 µM | > 10 | > 10 µM | > 10 µM | > 10 | > 10 | > 10 | > 10 |
| Cn1cc(C2=C(c3ccc(OC[C@@H](O)CO)cc3)C(=O)NC2=O)c2ccccc21 | > 25 µM | > 25 | > 25 µM | > 25 µM | > 25 | 7.87 | > 25 | > 25 |
| CCOC(=O)c1cc(-c2ccc([N+](=O)[O-])cc2)n(-c2ccc(C(=O)O)c(O)c2)c1C | 17.5 µM | 17 | 38.6 µM | 29.9 µM | 4.55 | 3.64 | 3.8 | 10.3 |

| SMILES | TGI (DU-145 prostate) | TGI (HS 578T breast) [µM] | TGI (NCI/ADR-RES ovarian) | TGI (MDA-MB-231 breast) | GI50 (DU-145 prostate) [µM] | GI50 (HS 578T breast) [µM] | GI50 (NCI/ADR-RES ovarian) [µM] | GI50 (MDA-MB-231 breast) [µM] |
| --- | --- | --- | --- | --- | --- | --- | --- | --- |
| CCCCCCCCCCCCOC1C(CNCC2OC3OC(C)(C)OC3C2NC(=O)Nc2ccc(C(=O)OCC)cc2)OC2OC(C)(C)OC21 (stereo unspecified) | 3.73 µM | 3.76 | 4.35 µM | 3.33 µM | 1.89 | 1.67 | 2.19 | 1.77 |
| N#Cc1cnn2ccn(C3OC(COC(=O)c4ccccc4)C(OC(=O)c4ccccc4)C3OC(=O)c3ccccc3)c12 (stereo unspecified) | > 21.5 µM | 21.5 | > 21.5 µM | > 21.5 µM |  |  |  |  |
| CCOc1ccc2nc(NC(=O)/C(CC(=O)CC(C3=C(O)c4ccccc4CC3=O)c3ccccc3)=N\O)sc2c1 (stereo unspecified) | > 100 µM | > 100 | > 100 µM | > 100 µM |  |  |  |  |
| CCN1CCN(c2nc(NCCNc3ccnc4cc(Cl)ccc34)c3ccccc3n2)CC1 | 9.14 µM | 7.36 | 25.8 µM | 2.88 µM | 2.17 | 2.19 | 4.57 | 1.28 |
| CN(C)c1ccc2c(c1)oc(=O)c1ccccc12 | 23 µM | 97.2 | 44.9 µM | 34.4 µM |  |  |  |  |
| CC1=C(CCCOC(=O)NCCCl)C2=C(C)C3(CC3)[C@@](C)(O)C(=O)C2=C1 | > 100 µM | 87.4 | > 100 µM | 8.35 µM | 1.14 | 8.31 | 2.95 | 2.56 |
| CC(=O)c1ccc(N(/C=C/C(=O)C(F)(F)F)CC(=O)c2ccc(Cl)c(Cl)c2)cc1 | 36.1 µM | 45.2 | 38.4 µM | 25 µM | 19.2 | 20.3 | 18.2 | 11.6 |
| COc1cccc(-c2nn(-c3ccccc3)cc2-c2ccnc(NCCCNS(=O)(=O)c3cccc(F)c3)c2)c1 | > 100 µM | > 100 | > 100 µM | > 100 µM | 6.33 | 6.52 | 3.05 | 3.43 |
| O=C(O)Cc1c[nH]c2ccc(F)cc12 | > 100 µM |  | > 100 µM | > 100 µM |  |  |  |  |
| O=C1c2ccccc2-c2c1c1cc3c(cc1c(=O)n2CCCCl)OCO3 | > 100 µM | > 100 | > 100 µM | 75.3 µM | > 100 | > 100 | 24.9 | 24.7 |
| COc1ccc(CNC(=O)COc2ccc(/C=N/Nc3nc4ccccc4s3)cc2)cc1 | > 100 µM | 19.1 | 19.4 µM | 4.45 µM | 3.8 | 2.24 | 3.12 | 1.86 |
| CC[n+]1ccc2c(c1)C(=O)c1nccc3c1c-2nc1ccccc13 | 4.31 µM | > 10.1 | > 33.3 µM | 14 µM | 1.03 | 0.955 | > 27.7 | 2.17 |
| OC(c1cccc(C(F)(F)F)c1)c1cnccc1NC1CCCCCC1 (stereo unspecified) | 7.53 µM | 5.57 | 4.18 µM | 3.22 µM | 2.77 | 2.04 | 1.85 | 1.64 |
| N#Cc1c(O)c2c(c(O)c1C#N)C(=O)c1ccccc1C2=O | 2.5 µM | 5.87 | 7.25 µM | 9.55 µM | 1.19 | 1.26 | 2.12 | 2.01 |
| O=C1CSC(N2CCN(c3cccc(Cl)c3)CC2)=N1 | > 100 µM | > 100 | > 100 µM | > 100 µM | > 100 | > 100 | > 100 | > 100 |
| CN(C)CCNc1nc2ccccc2c2[nH]c3ccccc3c12 | 6.93 µM | 13.6 | 7.86 µM | 3.99 µM | 1.06 | 4.01 | 1.02 | 1.22 |
| Cc1c(N2C(=O)/C(=C\c3ccccc3O)N=C2c2ccccc2)c(=O)n(-c2ccccc2)n1C | > 100 µM | 75.3 | > 100 µM | > 100 µM | 87.4 | 27.9 | 76.3 | 41.9 |
| CNC(=O)c1cc(Oc2ccc3c(c2)sc2nc(-c4ccc(N)cc4)cn23)ccn1 | > 100 µM | > 100 | > 100 µM | > 100 µM | 0.344 | 0.224 | 0.211 | 0.726 |
| Clc1cccc(NC=Nc2ccc(-c3nc4ccccc4s3)cc2)c1 | 38.8 µM | > 50 | 32 µM | 23.6 µM | 16.4 | 32.6 | 13.2 | 9.72 |
